Columns and labels:
tyrosinase from mushroom = test: Mushroom tyrosinase activity; type: biochemical
Description: Tyrosinase activities using L-tyrosine or L-DOPA as a substrate were determined according to the protocols described previously. Briefly, samples, L-tyrosine (2.5 mM, or L-DOPA, 3.0 mM), mushroom tyrosinase (46 units/mL), and phosphate buffer were mixed in a 96-well plate and incubated at 25 °C. (L-tyrosine; 30 min, L-DOPA; 5 min). The absorbance was then measured at 492 nm.

TRP-1 mRNA = test: Expression of TRP-1 mRNA (qRT-PCR); type: cell-based, murine; conditions: B16 4A5 cells, theophylline 1 mM, 72 h
Description: (§1) The expression of tyrosinase, TRP-1, and TRP-2 mRNA was assessed according to previously reported methods. Briefly, murine B16 melanoma 4A5 cells were seeded into 96-well plates in DMEM. After 24 h of culture, a test compound and theophylline (1 mM) were added and incubated for 72 h. Then, the amount of each mRNA was quantified by quantitative reverse transcription PCR.

TRP-2 mRNA = test: Expression of TRP-2 mRNA (qRT-PCR); type: cell-based, murine; conditions: B16 4A5 cells, theophylline 1 mM, 72 h
Description: as §1

tyrosinase mRNA = test: Expression of tyrosinase mRNA (qRT-PCR); type: cell-based, murine; conditions: B16 4A5 cells, theophylline 1 mM, 72 h
Description: as §1

[1] = Cell viability of B16 melanoma 4A5 cells; type: cell-based, murine; conditions: mouse, B16 4A5 cells
Description: (§2) The effects on theophylline-stimulated melanogenesis and viability of B16 melanoma 4A5 cells were examined according to previously described protocols. Briefly, murine B16 melanoma 4A5 cells were seeded into 48-well plates in DMEM. After 24 h of culture, a test compound and theophylline (1 mM) were added and incubated for 72 h. The melanin content and cell viability were then measured. IC50 values were determined graphically.

B16 melanoma 4A5 cells = test: Theophylline-stimulated melanogenesis inhibition (melanin content); type: cell-based, murine; conditions: for IC50: theophylline (1 mM)-stimulated B16 melanoma 4A5 cells
Description: as §2
Inhibition (%) was calculated using the following formula, where A and B indicate the optical density of the vehicle- and test compound-treated groups, respectively, and C indicates cell viability (%) (see below): Inhibition (%) = [(A − B)/A]/(C/100) × 100.

mammalian tyrosinase = target: T1, mammalian tyrosinase (Mus musculus, UniProt P11344); test: Mammalian tyrosinase activity (B16 cell lysate, L-DOPA); type: biochemical, murine; conditions: L-DOPA as substrate
T1 construct: the cells were solubilized using 0.1% Triton X-100; endogenous in cells; host or cells: B16 melanoma cells (lysate, after 72 h of 1 mM theophylline)
T1 sequence (P11344 19-533): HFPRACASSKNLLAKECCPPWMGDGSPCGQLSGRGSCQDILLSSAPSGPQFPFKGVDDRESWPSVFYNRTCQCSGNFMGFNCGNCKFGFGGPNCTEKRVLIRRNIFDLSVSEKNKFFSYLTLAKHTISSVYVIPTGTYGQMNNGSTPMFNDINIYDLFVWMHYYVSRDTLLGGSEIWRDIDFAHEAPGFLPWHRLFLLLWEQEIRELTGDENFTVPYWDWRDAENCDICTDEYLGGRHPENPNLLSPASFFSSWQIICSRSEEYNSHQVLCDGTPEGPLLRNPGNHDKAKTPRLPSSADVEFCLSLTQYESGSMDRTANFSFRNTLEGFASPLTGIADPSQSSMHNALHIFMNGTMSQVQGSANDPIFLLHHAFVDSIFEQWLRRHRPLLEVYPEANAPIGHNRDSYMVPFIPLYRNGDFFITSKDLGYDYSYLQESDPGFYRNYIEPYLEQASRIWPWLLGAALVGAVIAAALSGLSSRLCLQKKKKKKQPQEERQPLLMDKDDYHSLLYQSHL
Description: Tyrosinase activity using L-DOPA as a substrate was determined according to protocols described previously. Briefly, B16 cells were seeded into 6-well plates in DMEM. After preculture with theophylline (1 mM) for 72 h, the cells were solubilized using 0.1% Triton X-100. Fifty microliters of each lysate and sample was then mixed with 100 µL 2 mM L-DOPA. After the mixtures were incubated for 30 min at 37 °C, the absorbance of each solution at 492 nm was measured.

[2] = Stability in aqueous solution at elevated temperature (HPLC residual ratio); type: physicochemical; conditions: 20 mg/mL at 125 °C in the dark, after 3 h
Description: To determine stability, the samples were stored at 125 °C, and the residual ratio was calculated by measuring the remaining compound by HPLC. HPLC mobile phase conditions were as follows: AsA was described previously, 6 and 20 were 40% methanol containing 0.1% formic acid at flow rate of 0.2 mL/min [52, 53].

[3] = tested on: tyrosinase activity in B16 melanoma 4A5 cells; test: Tyrosinase activity in cultured B16 cells; type: cell-based, murine; conditions: B16 4A5 cells, L-DOPA as substrate
Description: Tyrosinase activity in cultured cells was determined according to protocols described previously with modifications. Briefly, B16 melanoma 4A5 cells (4 × 10^3 cells/100 µL/well) were seeded into 96-well plates in DMEM. After pre-culture with sample and theophylline (1 mM) for 72 h, the cells were solubilized using 0.1% Triton X-100, and then each lysate was mixed with 50 μL 2 mM L-DOPA. After the mixtures were incubated for 1 h at 37 °C, the absorbance of the solution at 492 nm was measured using the microplate reader.

tyrosinase protein = test: Expression of tyrosinase protein (western blotting); type: cell-based, murine; conditions: B16 4A5 cells, theophylline 1 mM, 72 h
Description: The expression of tyrosinase protein was assessed according to a previously reported method. Briefly, murine B16 melanoma 4A5 cells were seeded into 6-well plates in DMEM. After 24 h of culture, a test compound and theophylline (1 mM) were added and incubated for 72 h. The expression of tyrosinase protein then was measured by western blotting.

[4] = Mus musculus, theophylline-stimulated B16 4A5 cells, 72 h

SMILES	Inhibition (%) of mushroom tyrosinase (tyrosinase from mushroom; Substrate: L-DOPA, 10 µM)	Inhibition (%) of mushroom tyrosinase (tyrosinase from mushroom; Substrate: L-DOPA, 30 µM)	Inhibition (%) of mushroom tyrosinase (tyrosinase from mushroom; Substrate: L-Tyrosine, 10 µM)	Inhibition (%) of mushroom tyrosinase (tyrosinase from mushroom; Substrate: L-Tyrosine, 30 µM)	TRP-1 mRNA/β-actin mRNA (TRP-1 mRNA; 3 µM)	TRP-1 mRNA/β-actin mRNA (TRP-1 mRNA; 10 µM)	TRP-2 mRNA/β-actin mRNA (TRP-2 mRNA; 3 µM)	Tyrosinase mRNA/β-actin mRNA (tyrosinase mRNA; 3 µM)	viability at 72 h, 3 µM [1]	viability at 72 h, 10 µM [1]	viability at 72 h, 30 µM [1]	viability at 72 h, 100 µM [1]	inhibition at 3 µM (B16 melanoma 4A5 cells; [4])	inhibition at 10 µM (B16 melanoma 4A5 cells; [4])	inhibition at 30 µM (B16 melanoma 4A5 cells; [4])	inhibition at 100 µM (B16 melanoma 4A5 cells; [4])	IC50 (B16 melanoma 4A5 cells; Mus musculus, 72 h)	Inhibition (%) of mushroom tyrosinase (tyrosinase from mushroom; Substrate: L-DOPA, 100 µM)	Inhibition (%) of mushroom tyrosinase (tyrosinase from mushroom; Substrate: L-Tyrosine, 100 µM)	Residual ratio in aqueous solution [2]	also measured
CCCCCCCCCCCCCCOC1=C(OCC(O)CO)C(=O)O[C@@H]1[C@@H](O)CO (stereo partly shown) [compound 28, 2-O-(2,3-dihydroxypropyl)-3-O-tetradecyl-AsA]	−5.7 ± 9.5%	−8.1 ± 5.2%	−4.4 ± 4.6%	−8.4 ± 1.0%	0.88 ± 0.20	0.83 ± 0.27	0.43 ± 0.11	0.54 ± 0.03	85.1%	62.6%	23%	18.1%	32.8 ± 7.2%	75.7 ± 3.9%	95.9 ± 8.4%	95.2 ± 20.7%	5 µM	–	–	–	potency relative to arbutin (melanogenesis inhibition) (B16 melanoma 4A5 cells; ratio of IC50 values vs arbutin): more than 166 fold
CCCCCCOC1=C(OCC(O)CO)[C@@H]([C@@H](O)CO)OC1=O (stereo partly shown) [compound 6, 3-O-(2,3-dihydroxypropyl)-2-O-hexyl-AsA]	–	−1.5 ± 1.5%	–	−1.5 ± 6.7%	–	–	–	–	102%	96.1%	88.4%	77.1%	-1.8 ± 4.9%	5.6 ± 2%	26.2 ± 6%	53.1 ± 3.1%	81.4 µM	−1.0 ± 0.7%	0.9 ± 1.4%	85%	activity on mammalian tyrosinase (in words) (mammalian tyrosinase): did not show activity; TRP-1 mRNA/β-actin mRNA (TRP-1 mRNA; 30 µM): 0.48 ± 0.15; TRP-2 mRNA/β-actin mRNA (TRP-2 mRNA; 30 µM): 0.53 ± 0.18; TRP-2 mRNA/β-actin mRNA (TRP-2 mRNA; 100 µM): 0.70 ± 0.06; tyrosinase activity in cultured cells (in words) [3]: decreased tyrosinase activity in cultured cells; Tyrosinase mRNA/β-actin mRNA (tyrosinase mRNA; 30 µM): 0.60 ± 0.07; expression of tyrosinase protein (in words) (tyrosinase protein): suppressed tyrosinase protein expression in a concentration-dependent manner
O=C1O[C@H]([C@@H](O)CO)C(O)=C1O [AsA, L-ascorbic acid]	–	–	–	–	–	–	–	–	–	–	–	–	–	–	–	–	> 3000 µM	–	–	9%	viability at 72 h, 1000 µM [1]: 104%; viability at 72 h, 3000 µM [1]: 89.2%; inhibition at 1000 µM (B16 melanoma 4A5 cells; [4]): -17.4 ± 4%; inhibition at 3000 µM (B16 melanoma 4A5 cells; [4]): 3.8 ± 4.7%
CCCCCCCCCCCCCCOC1=C(OCC(O)CO)[C@@H]([C@@H](O)CO)OC1=O (stereo partly shown) [compound 14, 3-O-(2,3-dihydroxypropyl)-2-O-tetradecyl-AsA]	−8.9 ± 3.5%	−8.2 ± 4.3%	−7.0 ± 6.7%	−9.7 ± 2.7%	1.02 ± 0.27	0.92 ± 0.22	0.58 ± 0.06	0.78 ± 0.10	101%	89.1%	56.3%	21%	6.3 ± 2.6%	48.4 ± 2.2%	97.6 ± 1.8%	100 ± 18.2%	11.1 µM	–	–	–	–
CCCCCCOC1=C(OCC(O)CO)C(=O)O[C@@H]1[C@@H](O)CO (stereo partly shown) [compound 20, 2-O-(2,3-dihydroxypropyl)-3-O-hexyl-AsA]	–	−5.7 ± 5.1%	–	1.4 ± 4.7%	–	–	–	–	–	–	–	95.3%	–	–	–	43.5 ± 2.6%	117 µM	−2.4 ± 4.2%	−6.1 ± 0.6%	82%	TRP-1 mRNA/β-actin mRNA (TRP-1 mRNA; 30 µM): 0.67 ± 0.12; TRP-2 mRNA/β-actin mRNA (TRP-2 mRNA; 30 µM): 1.07 ± 0.30; TRP-2 mRNA/β-actin mRNA (TRP-2 mRNA; 100 µM): 0.88 ± 0.25; Tyrosinase mRNA/β-actin mRNA (tyrosinase mRNA; 30 µM): 0.72 ± 0.10; expression of tyrosinase protein (in words) (tyrosinase protein): suppressed tyrosinase protein expression in a concentration-dependent manner; viability at 72 h, 300 µM ([1]; 300 µM): 83.9%; viability at 72 h, 1000 µM [1]: 60.8%; viability at 72 h, 3000 µM [1]: 44.7%; inhibition at 300 µM (B16 melanoma 4A5 cells; Mus musculus, 300 µM, theophylline-stimulated B16 4A5 cells, 72 h): 77 ± 2.1%; inhibition at 1000 µM (B16 melanoma 4A5 cells; [4]): 94.9 ± 1.5%; inhibition at 3000 µM (B16 melanoma 4A5 cells; [4]): 80.9 ± 4.1%
CCCCCCCCCCCOC1=C(OCC(O)CO)C(=O)O[C@@H]1[C@@H](O)CO (stereo partly shown) [compound 25, 2-O-(2,3-dihydroxypropyl)-3-O-undecyl-AsA]	−10.2 ± 2.3%	−10.7 ± 3.8%	−8.0 ± 0.6%	−8.7 ± 1.5%	–	–	–	–	101%	85.8%	53.6%	24%	-5.1 ± 2.3%	26.6 ± 3%	85 ± 3.8%	101 ± 10.1%	18.1 µM	–	–	–	–

Source: PMC5979531, “Structural Requirements of Alkylglyceryl-L-Ascorbic Acid Derivatives for Melanogenesis Inhibitory Activity” (International Journal of Molecular Sciences, 2018)
